Assay results taken from publication PMC8561395 (Biochemistry, 2021).
Where two headings read alike, the source gives them in different places.

Key:
SsoPTP [1] = target: T1, SsoPTP (Saccharolobus solfataricus, UniProt Q97VZ7); assay: Inhibition of SsoPTP activity by buffers, pNPP as substrate
T1 sequence (Q97VZ7 1-161): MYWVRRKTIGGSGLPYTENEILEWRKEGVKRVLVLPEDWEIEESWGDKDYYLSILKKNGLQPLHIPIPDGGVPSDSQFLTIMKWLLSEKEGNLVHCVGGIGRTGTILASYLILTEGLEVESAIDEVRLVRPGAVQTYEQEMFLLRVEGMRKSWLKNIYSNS

[2] = test system: bovine low molecular weight PTP; settings: more strongly than observed for SsoPTP; cited from earlier work
SsoPTP [3] = target: T1, SsoPTP; assay: Steady-state Michaelis-Menten kinetics with pNPP; type: biochemical, Sulfolobus solfataricus; settings: read-out: KM for pNPP

Inhibition of SsoPTP (in words) (SsoPTP [1]; pNPP substrate)	Structure (SMILES)	Ki (SsoPTP [1])	also measured
no inhibitory effect	CC(=O)O [Acetic acid]	–	–
–	O=S(=O)(O)CCCNC1CCCCC1 [CAPS]	–	Ki (SsoPTP [1]; pNPP substrate, 100 mM sodium acetate buffer pH 5.0, inhibitor 5–400 mM): 54 ± 11 mM
–	O=C(O)CC(O)(CC(=O)O)C(=O)O [Citric acid]	8 ± 1 mM	–
–	O=S(=O)(O)CCN1CCN(CCO)CC1 [HEPES]	44 ± 8 mM	Strength of inhibition of bovine low molecular weight PTP relative to SsoPTP [2]: about 10 fold
did not show measurable inhibition	O=S(=O)(O)CCCN1CCOCC1 [MOPS]	–	–
–	O=[N+]([O-])c1ccc(OP(=O)(O)O)cc1 [pNPP, p-nitrophenyl phosphate]	–	Km (SsoPTP [3]): 3.4 mM
